Experimental data published in US20200017496A1 (priority 2017, published 2020).
Read-outs that look alike come from different tables or passages of the source.

Test system: Enterobacter cloacae (ECL) isolates
Test: MIC of compounds alone and combined with antibacterials, broth microdilution (CLSI)
Format: cell-based
Outline: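 First, log-phase suspensions are brought to a final 5·10^5 CFU/mL in cation-adjusted Mueller-Hinton broth. Then plates with compound, antibacterial, or both incubate 16-20 h at 35° C under ambient air. Finally, visual inspection gives the lowest growth-preventing concentration for each agent.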

[1] = strain ECL UFR195, antibacterial combined with AF1 @ 4 μg/mL
[2] = strain ECL UFR196, antibacterial combined with AF1 @ 4 μg/mL
[3] = strain ECL UFR197, antibacterial combined with AF1 @ 4 μg/mL
[4] = strain ECL UFR198, antibacterial combined with AF1 @ 4 μg/mL

Structure (SMILES): NC(=O)[C@@H]1CC[C@@H]2CN1C(=O)N2OC(F)(F)C(=O)[O-].[Na+] [EA1]
- MIC (ECL 2185D, alone): 16 mg/L
- MIC (ECL 190310, alone): 32 mg/L
- MIC (ECL 190408, alone): >128 mg/L
- MIC (ECL 200138, alone): >32 mg/L
- MIC (ECL 200322, alone): 16 mg/L
- MIC (ECL 260033, alone): 16 mg/L
- MIC (ECL 260253, alone): >32 mg/L
- MIC (ECL 260323, alone): >32 mg/L
- MIC (ECL 260508, alone): >32 mg/L
- MIC (ECL NEM146383, alone): 32 mg/L
- MIC (ECL P99, alone): 16 mg/L
- MIC (ECL UFR12, alone): 32 mg/L
- MIC (ECL UFR13, alone): 32 mg/L
- MIC (ECL UFR14, alone): >32 mg/L
- MIC (ECL UFR60, alone): 32 mg/L
- MIC (ECL UFR70, alone): 32 mg/L
- MIC (ECL UFR84, alone): >32 mg/L
- MIC (ECL UFR85, alone): >32 mg/L
- MIC (ECL UFR194, alone): >32 mg/L
- MIC (ECL UFR200, alone): >32 mg/L
- MIC (strain ECL UFR195, compound alone): >32 mg/L
- MIC (strain ECL UFR196, compound alone): >32 mg/L
- MIC (strain ECL UFR197, compound alone): 16 mg/L
- MIC (strain ECL UFR198, compound alone): >32 mg/L

Structure (SMILES): CO/N=C(\C(=O)N[C@@H]1C(=O)N2C(C(=O)O)=C(COC(N)=O)CS[C@H]12)c1ccco1 [FUR, Cefuroxime]
- MIC ATB in combination (ECL 190408, AF1 @ 4 μg/mL): 4 mg/L
- MIC ATB in combination (ECL 200322, AF1 @ 4 μg/mL): 32 mg/L
- MIC ATB in combination (ECL 260508, AF1 @ 4 μg/mL): 32 mg/L
- MIC ATB in combination (ECL P99, AF1 @ 4 μg/mL): 64 mg/L
- MIC ATB in combination (ECL UFR12, AF1 @ 4 μg/mL): 16 mg/L
- MIC ATB in combination (ECL UFR60, AF1 @ 4 μg/mL): 64 mg/L
- MIC ATB in combination (ECL UFR70, AF1 @ 4 μg/mL): 32 mg/L
- MIC ATB in combination (ECL UFR194, AF1 @ 4 μg/mL): 32 mg/L
- MIC ATB in combination (ECL UFR200, AF1 @ 4 μg/mL): 16 mg/L
- MIC (Enterobacter cloacae, ATB alone, strain ECL UFR197 (TEM-1, CTX-M-15, OXA-1, OXA-48)): > 256 mg/L
- MIC (Enterobacter cloacae, ATB alone, strain ECL UFR198 (TEM-1, SHV-12, CTX-M-15, DHA-1, OXA-1, OXA-48)): > 256 mg/L
- MIC (Enterobacter cloacae, strain ECL 2185D (OXA-163), ATB alone): > 256 mg/L
- MIC (Enterobacter cloacae, strain ECL 190310 (AmpC), ATB alone): > 256 mg/L
- MIC (Enterobacter cloacae, strain ECL 190408 (TEM-1, CTX-M-15, OXA-1), ATB alone): > 256 mg/L
- MIC (Enterobacter cloacae, strain ECL 200138 (AmpC), ATB alone): > 256 mg/L
- MIC (Enterobacter cloacae, strain ECL 200322 (TEM-1, CTX-M-15, OXA-1), ATB alone): > 256 mg/L
- MIC (Enterobacter cloacae, strain ECL 260033 (AmpC), ATB alone): > 256 mg/L
- MIC (Enterobacter cloacae, strain ECL 260253 (TEM-1, KPC-3), ATB alone): > 256 mg/L
- MIC (Enterobacter cloacae, strain ECL 260323 (AmpC), ATB alone): > 256 mg/L
- MIC (Enterobacter cloacae, strain ECL 260508 (TEM-1, CTX-M-15), ATB alone): > 256 mg/L
- MIC (Enterobacter cloacae, strain ECL NEM146383 (AmpC), ATB alone): > 256 mg/L
- MIC (Enterobacter cloacae, strain ECL P99 (AmpC), ATB alone, read-out: MIC): > 512 mg/L
- MIC (Enterobacter cloacae, strain ECL UFR12 (CTX-M-9, OXA-48), ATB alone): > 256 mg/L
- MIC (Enterobacter cloacae, strain ECL UFR13 (TEM-1, SHV-12, CTX-M-9, OXA-48), ATB alone): > 256 mg/L
- MIC (Enterobacter cloacae, strain ECL UFR14 (TEM-1, SHV-12, CTX-M-15, DHA-1, OXA-1, OXA-48), ATB alone): > 256 mg/L
- MIC (Enterobacter cloacae, strain ECL UFR60 (TEM-1, CTX-M-15, KPC-2), ATB alone): > 256 mg/L
- MIC (Enterobacter cloacae, strain ECL UFR70 (TEM-1, CTX-M-15, CMY-2, OXA-1, Porin loss), ATB alone): > 256 mg/L
- MIC (Enterobacter cloacae, strain ECL UFR84 (TEM-1, AmpC, OXA-1), ATB alone): > 256 mg/L
- MIC (Enterobacter cloacae, strain ECL UFR85 (TEM-1, CTX-M-15, AmpC), ATB alone): > 256 mg/L
- MIC (Enterobacter cloacae, strain ECL UFR194 (OXA-48), ATB alone): 32 mg/L
- MIC (Enterobacter cloacae, strain ECL UFR195 (TEM-1, CTX-M-15, OXA-1, OXA-48), ATB alone): > 256 mg/L
- MIC (Enterobacter cloacae, strain ECL UFR196 (TEM-1, CTX-M-15, OXA-1, OXA-48), ATB alone): > 256 mg/L
- MIC (Enterobacter cloacae, strain ECL UFR200 (TEM-1, SHV-12, KPC-2), ATB alone): > 256 mg/L
- MIC ATB in combination [1]: 32 mg/L
- MIC ATB in combination [2]: 64 mg/L
- MIC ATB in combination [3]: 64 mg/L

Structure (SMILES): COCC1=C(C(=O)O)N2C(=O)[C@@H](NC(=O)/C(=N\OC)c3csc(N)n3)[C@H]2SC1 [POD, Cefpodoxime]
- MIC ATB in combination (ECL 2185D, AF1 @ 4 μg/mL): >128 mg/L
- MIC ATB in combination (ECL 190310, AF1 @ 4 μg/mL): 64 mg/L
- MIC ATB in combination (ECL 190408, AF1 @ 4 μg/mL): <=0.25 μg/mL
- MIC ATB in combination (ECL 200138, AF1 @ 4 μg/mL): 32 mg/L
- MIC ATB in combination (ECL 200322, AF1 @ 4 μg/mL): 1 mg/L
- MIC ATB in combination (ECL 260033, AF1 @ 4 μg/mL): 128 mg/L
- MIC ATB in combination (ECL 260253, AF1 @ 4 μg/mL): 8 mg/L
- MIC ATB in combination (ECL 260323, AF1 @ 4 μg/mL): 32 mg/L
- MIC ATB in combination (ECL 260508, AF1 @ 4 μg/mL): 1 mg/L
- MIC ATB in combination (ECL NEM146383, AF1 @ 4 μg/mL): 16 mg/L
- MIC ATB in combination (ECL P99, AF1 @ 4 μg/mL): 16 mg/L
- MIC ATB in combination (ECL UFR12, AF1 @ 4 μg/mL): 1 mg/L
- MIC ATB in combination (ECL UFR13, AF1 @ 4 μg/mL): 8 mg/L
- MIC ATB in combination (ECL UFR14, AF1 @ 4 μg/mL): 8 mg/L
- MIC ATB in combination (ECL UFR60, AF1 @ 4 μg/mL): 1 mg/L
- MIC ATB in combination (ECL UFR70, AF1 @ 4 μg/mL): 8 mg/L
- MIC ATB in combination (ECL UFR84, AF1 @ 4 μg/mL): 32 mg/L
- MIC ATB in combination (ECL UFR85, AF1 @ 4 μg/mL): 4 mg/L
- MIC ATB in combination (ECL UFR194, AF1 @ 4 μg/mL): 1 mg/L
- MIC ATB in combination (ECL UFR200, AF1 @ 4 μg/mL): 1 mg/L
- MIC ATB in combination [1]: 1 mg/L
- MIC ATB in combination [2]: 2 mg/L
- MIC ATB in combination [3]: 8 mg/L
- MIC ATB in combination [4]: 8 mg/L

Structure (SMILES): C=CC1=C(C(=O)O)N2C(=O)[C@@H](NC(=O)/C(=N\O)c3csc(N)n3)[C@H]2SC1 [CDR, Cefdinir]
- MIC ATB in combination (ECL 190310, AF1 @ 4 μg/mL): 64 mg/L
- MIC ATB in combination (ECL 190408, AF1 @ 4 μg/mL): <=0.25 μg/mL
- MIC ATB in combination (ECL 200138, AF1 @ 4 μg/mL): 64 mg/L
- MIC ATB in combination (ECL 200322, AF1 @ 4 μg/mL): 4 mg/L
- MIC ATB in combination (ECL 260253, AF1 @ 4 μg/mL): 32 mg/L
- MIC ATB in combination (ECL 260323, AF1 @ 4 μg/mL): 64 mg/L
- MIC ATB in combination (ECL 260508, AF1 @ 4 μg/mL): 2 mg/L
- MIC ATB in combination (ECL NEM146383, AF1 @ 4 μg/mL): 32 mg/L
- MIC ATB in combination (ECL P99, AF1 @ 4 μg/mL): 16 mg/L
- MIC ATB in combination (ECL UFR12, AF1 @ 4 μg/mL): 4 mg/L
- MIC ATB in combination (ECL UFR13, AF1 @ 4 μg/mL): 16 mg/L
- MIC ATB in combination (ECL UFR14, AF1 @ 4 μg/mL): 32 mg/L
- MIC ATB in combination (ECL UFR60, AF1 @ 4 μg/mL): 8 mg/L
- MIC ATB in combination (ECL UFR70, AF1 @ 4 μg/mL): 4 mg/L
- MIC ATB in combination (ECL UFR84, AF1 @ 4 μg/mL): 64 mg/L
- MIC ATB in combination (ECL UFR85, AF1 @ 4 μg/mL): 8 mg/L
- MIC ATB in combination (ECL UFR194, AF1 @ 4 μg/mL): 2 mg/L
- MIC ATB in combination (ECL UFR200, AF1 @ 4 μg/mL): 2 mg/L
- MIC ATB in combination [1]: 4 mg/L
- MIC ATB in combination [2]: 16 mg/L
- MIC ATB in combination [3]: 8 mg/L
- MIC ATB in combination [4]: 32 mg/L
